The assay has as its target T1, WT hSLACK (Homo sapiens, UniProt Q5JUK3).
T1 construct: host or cells: CHO-K1
T1 sequence (Q5JUK3 1-1235 isoform Q5JUK3-3): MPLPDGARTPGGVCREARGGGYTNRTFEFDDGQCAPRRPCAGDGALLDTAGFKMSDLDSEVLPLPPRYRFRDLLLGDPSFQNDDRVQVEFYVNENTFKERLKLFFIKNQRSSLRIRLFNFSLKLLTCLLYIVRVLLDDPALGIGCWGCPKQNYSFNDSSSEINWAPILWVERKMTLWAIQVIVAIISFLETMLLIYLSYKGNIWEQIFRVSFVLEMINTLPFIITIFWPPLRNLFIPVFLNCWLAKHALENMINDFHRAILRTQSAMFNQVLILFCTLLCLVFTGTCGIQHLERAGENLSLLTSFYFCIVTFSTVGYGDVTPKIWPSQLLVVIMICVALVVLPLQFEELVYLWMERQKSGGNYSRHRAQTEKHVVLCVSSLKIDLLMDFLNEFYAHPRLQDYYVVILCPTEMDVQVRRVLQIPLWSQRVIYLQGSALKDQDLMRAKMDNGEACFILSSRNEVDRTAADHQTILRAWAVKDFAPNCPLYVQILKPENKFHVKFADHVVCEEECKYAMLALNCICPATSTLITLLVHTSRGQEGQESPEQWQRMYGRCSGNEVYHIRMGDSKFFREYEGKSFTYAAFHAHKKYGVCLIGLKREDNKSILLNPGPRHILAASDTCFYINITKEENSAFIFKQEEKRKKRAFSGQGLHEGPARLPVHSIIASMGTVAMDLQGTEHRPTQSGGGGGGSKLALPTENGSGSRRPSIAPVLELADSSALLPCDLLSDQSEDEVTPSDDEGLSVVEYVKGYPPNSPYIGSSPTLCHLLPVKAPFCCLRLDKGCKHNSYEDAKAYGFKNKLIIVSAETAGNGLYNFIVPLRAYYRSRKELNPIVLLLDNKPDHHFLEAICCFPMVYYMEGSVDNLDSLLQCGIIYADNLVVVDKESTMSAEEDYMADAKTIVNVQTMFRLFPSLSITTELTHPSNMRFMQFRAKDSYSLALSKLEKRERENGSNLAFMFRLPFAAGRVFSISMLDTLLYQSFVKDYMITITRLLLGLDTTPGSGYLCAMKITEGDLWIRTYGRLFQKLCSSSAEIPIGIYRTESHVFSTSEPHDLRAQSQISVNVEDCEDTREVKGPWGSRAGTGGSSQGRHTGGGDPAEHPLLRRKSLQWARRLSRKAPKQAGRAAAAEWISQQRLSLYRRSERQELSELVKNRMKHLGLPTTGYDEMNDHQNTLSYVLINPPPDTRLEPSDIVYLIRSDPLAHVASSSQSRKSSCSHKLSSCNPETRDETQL
In words: Whole-cell automated patch-clamp (APC) in CHO cells stably expressing WT hSLACK. Type of assay: cell-based. The note with it: for SLACK Imax: maximum inhibition at 30 µM test compound standardized to VU0606170 (set at 100%), WT hSLACK; for IC50: whole-cell APC, CHO cells stably expressing WT hSLACK, averages n ≥ 3, read-out: SLACK IC50. The protocol: All new analogs were tested in our APC assay using CHO cells stably expressing WT SLACK using a concentration-response format with concentrations ranging from 0.125 to 30 μM in half-log steps and a minimum of three cells (replicates) per concentration series. […] Still, there were some notable results. For example, substitution at the 4-position was largely unfavorable regardless of the nature of the substituent (21, 24, 27, 30, and 33) apart from the 4-fluoro analog 18. […] As the trifluoromethyl group is similar in electronegativity to chlorine, but larger than both methyl and chlorine, perhaps the steric bulk of the trifluoromethyl is to blame for the poor potency of these analogs. With the exception of the fluoro (16–18) and cyano (28–30) analogs, substitution at the 3-position was favorable for SLACK activity, with 3-methoxy analog 32 standing out in this set.
Stably transfected monoclonal HEK293 cell lines expressing Slick, Maxi-K α1/β3, Maxi-K α1/β4, CaV3.2, GIRK 1/2, KV2.1, KV7.2, NaV1.7, and TASK-1 were generated as previously described. Stably transfected monoclonal HEK293 cell lines expressing hERG were generated as previously described. CHO-K1 cells expressing human Slack and disease-associated human Slack mutations, G288S and A934T, were generated by transfecting a PiggyBac TRE mammalian expression vector (VectorBuilder, Chicago, IL, USA) containing KCNT1. FuGENE 6 (Promega, Madison, WI, USA) transfection reagent and protocol, together with Opti-MEM (Thermo Fisher Scientific, Walkham, MA, USA), were utilized.
Automated patch-clamp recording was performed with a SyncroPatch 768 PE system (Nanion, Munich, Germany) as previously described. Whole-cell recordings were performed at room temperature. Cells were harvested by first washing with PBS without Mg^2+ or Ca^2+ (Gibco, Billings, MT, USA) to remove cell culture media, followed by dissociation with TryPLE (Gibco, Billings, MT, USA). Cells were then resuspended and diluted to 100,000 cells/mL in external solution. External solution contained 105 mM NaCl, 4 mM KCl, 1 mM MgCl2, 5 mM CaCl2, 10 mM HEPES, and 40 mM N-Methyl-D-glucamine chloride, titrated to pH of 7.4 and osmolarity of 300 mOsm/kg; internal solution contained 70 mM NaCl, 70 mM KF, 10 mM KCl, 5 mM EGTA, and 5 mM HEPES, titrated to a pH of 7.2 and osmolarity of 295 mOsm/kg.
The APC protocol was set as follows: Cells were held at a […] of −80 mV for 100 ms, then a ramp protocol was performed from −100 mV to 80 mV at 0.4 mV/ms, followed by holding the cell at −80 mV for another 100 ms, then steps were performed at −20 mV, 0 mV, +20 mV, +40 mV, and +60 mV for 100 ms of each step. Whole-cell currents were measured at 0 mV and normalized to current after external buffer addition. […] To obtain the concentration-response relationship graphs and IC50 values, we take the median value of the last 7 current amplitude values obtained for each set of data points collected for a given concentration at a particular step.

A value given as a limit tells only on which side of the number the result lay.

One may read the IC50 as the point on the concentration scale where inhibition reaches its midpoint. As to `CN(Cc1ccccc1)c1nc2c(c(=O)n(Cc3ccccc3)c(=O)n2C)n1C` [Analog 8], the “SLACK Imax” value is given as 100% and the IC50 amounted to 1700 nM.

As for `CN(Cc1ccccc1)c1nc2c(c(=O)n(Cc3ccccc3F)c(=O)n2C)n1C` [Analog 16], the “SLACK Imax” value came out at 100% and the 50% inhibitory concentration (IC50) was found to be 1800 nM.

Take `CN(Cc1ccccc1)c1nc2c(c(=O)n(Cc3cccc(F)c3)c(=O)n2C)n1C` [Analog 17]: the “SLACK Imax” value is reported as 100% and the half-inhibitory concentration (IC50) turned out to be 1600 nM.

For `CN(Cc1ccccc1)c1nc2c(c(=O)n(Cc3ccc(F)cc3)c(=O)n2C)n1C` [Analog 18], the “SLACK Imax” value amounted to 100% and the IC50 was determined as 1300 nM.

`CN(Cc1ccccc1)c1nc2c(c(=O)n(Cc3ccccc3Cl)c(=O)n2C)n1C` [Analog 19]: the “SLACK Imax” value amounted to 89% and the IC50 was 2000 nM.

Consider `CN(Cc1ccccc1)c1nc2c(c(=O)n(Cc3cccc(Cl)c3)c(=O)n2C)n1C` [Analog 20], for which the “SLACK Imax” value is recorded as 100% and the IC50 amounted to 1900 nM.

For the compound `CN(Cc1ccccc1)c1nc2c(c(=O)n(Cc3ccc(Cl)cc3)c(=O)n2C)n1C` [Analog 21], the “SLACK Imax” value is on record as 100% and the IC50 was determined as 2600 nM.

On to `Cc1ccccc1Cn1c(=O)c2c(nc(N(C)Cc3ccccc3)n2C)n(C)c1=O` [Analog 22], for which the “SLACK Imax” value is 100% and the IC50 amounted to 1600 nM.

As to `Cc1cccc(Cn2c(=O)c3c(nc(N(C)Cc4ccccc4)n3C)n(C)c2=O)c1` [Analog 23], the “SLACK Imax” value came out at 100% and the half-inhibitory concentration (IC50) is 1500 nM.

In the case of `Cc1ccc(Cn2c(=O)c3c(nc(N(C)Cc4ccccc4)n3C)n(C)c2=O)cc1` [Analog 24], the “SLACK Imax” value was determined as 102% and the IC50 worked out at 5500 nM.

In the case of `CN(Cc1ccccc1)c1nc2c(c(=O)n(Cc3ccccc3C(F)(F)F)c(=O)n2C)n1C` [Analog 25], the “SLACK Imax” value stood at 70% and the IC50 was more than 10000 nM.

For the compound `CN(Cc1ccccc1)c1nc2c(c(=O)n(Cc3cccc(C(F)(F)F)c3)c(=O)n2C)n1C` [Analog 26], the “SLACK Imax” value is reported as 100% and the IC50 amounted to 4200 nM.

In the case of `CN(Cc1ccccc1)c1nc2c(c(=O)n(Cc3ccc(C(F)(F)F)cc3)c(=O)n2C)n1C` [Analog 27], the “SLACK Imax” value was 79% and the IC50 is 9700 nM.

With `CN(Cc1ccccc1)c1nc2c(c(=O)n(Cc3ccccc3C#N)c(=O)n2C)n1C` [Analog 28], the “SLACK Imax” value was found to be 99% and the IC50 came out at 2500 nM.

For the compound `CN(Cc1ccccc1)c1nc2c(c(=O)n(Cc3cccc(C#N)c3)c(=O)n2C)n1C` [Analog 29], the “SLACK Imax” value came to 100% and the 50% inhibitory concentration (IC50) worked out at 2400 nM.

For the compound `CN(Cc1ccccc1)c1nc2c(c(=O)n(Cc3ccc(C#N)cc3)c(=O)n2C)n1C` [Analog 30], the “SLACK Imax” value amounted to 100% and the IC50 amounted to 2400 nM.

`COc1ccccc1Cn1c(=O)c2c(nc(N(C)Cc3ccccc3)n2C)n(C)c1=O` [Analog 31]: the “SLACK Imax” value was 100% and the IC50 is 1300 nM.

For the compound `COc1ccc(Cn2c(=O)c3c(nc(N(C)Cc4ccccc4)n3C)n(C)c2=O)cc1` [Analog 33], the “SLACK Imax” value came to 78% and the IC50 is more than 10000 nM.

`CCn1c(N(C)Cc2ccccc2)nc2c1c(=O)n(Cc1ccccc1)c(=O)n2C` [Analog 41]: the “SLACK Imax” value amounted to 87% and the half-inhibitory concentration (IC50) was more than 10000 nM.

`CCCn1c(N(C)Cc2ccccc2)nc2c1c(=O)n(Cc1ccccc1)c(=O)n2C` [Analog 42]: the “SLACK Imax” value is given as 94% and the IC50 was more than 10000 nM.

Consider `CN(Cc1ccccc1)c1nc2c(c(=O)n(Cc3ccccc3)c(=O)n2C)n1CC1CC1` [Analog 43], for which the “SLACK Imax” value came out at 55% and the IC50 is more than 10000 nM.

Turning to `Cn1c(NCc2ccccc2)nc2c1c(=O)n(Cc1ccccc1)c(=O)n2C` [Analog 46a], the “SLACK Imax” value is reported as 88% and the IC50 was determined as 6000 nM.

Consider `CN(Cc1ccccc1F)c1nc2c(c(=O)n(Cc3ccccc3)c(=O)n2C)n1C` [Analog 47], for which the “SLACK Imax” value worked out at 100% and the IC50 is 2700 nM.

Turning to `CN(Cc1ccc(F)cc1)c1nc2c(c(=O)n(Cc3ccccc3)c(=O)n2C)n1C` [Analog 49], the “SLACK Imax” value was 100% and the IC50 is 1600 nM.

`CN(Cc1ccccc1Cl)c1nc2c(c(=O)n(Cc3ccccc3)c(=O)n2C)n1C` [Analog 50]: the “SLACK Imax” value was determined as 100% and the IC50 was determined as 3000 nM.

For `CN(Cc1cccc(Cl)c1)c1nc2c(c(=O)n(Cc3ccccc3)c(=O)n2C)n1C` [Analog 51], the “SLACK Imax” value was found to be 100% and the concentration for half-maximal inhibition (IC50) is 1700 nM.

Consider `CN(Cc1ccc(Cl)cc1)c1nc2c(c(=O)n(Cc3ccccc3)c(=O)n2C)n1C` [Analog 52], for which the “SLACK Imax” value came out at 100% and the IC50 amounted to 2300 nM.

`Cc1ccccc1CN(C)c1nc2c(c(=O)n(Cc3ccccc3)c(=O)n2C)n1C` [Analog 53]: the “SLACK Imax” value is given as 100% and the IC50 stood at 9900 nM.

As for `Cc1cccc(CN(C)c2nc3c(c(=O)n(Cc4ccccc4)c(=O)n3C)n2C)c1` [Analog 54], the “SLACK Imax” value is listed as 100% and the 50% inhibitory concentration (IC50) amounted to 2000 nM.

In the case of `Cc1ccc(CN(C)c2nc3c(c(=O)n(Cc4ccccc4)c(=O)n3C)n2C)cc1` [Analog 55], the “SLACK Imax” value worked out at 100% and the IC50 amounted to 1800 nM.

For the compound `CN(Cc1ccccc1C(F)(F)F)c1nc2c(c(=O)n(Cc3ccccc3)c(=O)n2C)n1C` [Analog 56], the “SLACK Imax” value is 100% and the IC50 stood at 1900 nM.

`CN(Cc1cccc(C(F)(F)F)c1)c1nc2c(c(=O)n(Cc3ccccc3)c(=O)n2C)n1C` [Analog 57]: the “SLACK Imax” value is 101% and the IC50 worked out at 1500 nM.

Turning to `CN(Cc1ccc(C(F)(F)F)cc1)c1nc2c(c(=O)n(Cc3ccccc3)c(=O)n2C)n1C` [Analog 58], the “SLACK Imax” value is on record as 100% and the IC50 came out at 1900 nM.

`COc1ccccc1CN(C)c1nc2c(c(=O)n(Cc3ccccc3)c(=O)n2C)n1C` [Analog 59]: the “SLACK Imax” value stood at 101% and the concentration for half-maximal inhibition (IC50) stood at 4700 nM.

The values above are taken from publication PMC11173529, “Structure–Activity Relationship Studies in a Series of Xanthine Inhibitors of SLACK Potassium Channels” (Molecules, 2024).
